In assay [1] the target is BRD4 (His-Brd4(44-477)) (Homo sapiens (Human), UniProt O60885). Briefly: TR-FRET in-vitro binding assay for BRD4. The settings on record: single determination or n ≧ 2 independent determinations, read-out: Biochemical IC50 BRD4. A digest of the protocol: (§1)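 TR-FRET binding with His-tagged bromodomain constructs, 8-point compound dilutions from 10 mM DMSO stocks. Reactions incubated 35 min at 30° C in 13.55 μL, read on an EnVision multilabel reader.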

Assay [2] has as its target BRD2 (His-Brd2(60-472)) (Homo sapiens (Human), UniProt P25440). Briefly: TR-FRET in-vitro binding assay for BRD2. To be noted: single determination or n ≧ 2 independent determinations, read-out: Biochemical IC50 BRD2. The gist of the method: as §1
The target in assay [3] is BRD3 (His-Brd3(20-477)) (Homo sapiens (Human), UniProt Q15059). Briefly: TR-FRET in-vitro binding assay for BRD3. To be noted: single determination or n ≧ 2 independent determinations, read-out: Biochemical IC50 BRD3. A digest of the protocol: as §1
BRD3 (His-Brd3(20-477)), sequence (Q15059 20-477): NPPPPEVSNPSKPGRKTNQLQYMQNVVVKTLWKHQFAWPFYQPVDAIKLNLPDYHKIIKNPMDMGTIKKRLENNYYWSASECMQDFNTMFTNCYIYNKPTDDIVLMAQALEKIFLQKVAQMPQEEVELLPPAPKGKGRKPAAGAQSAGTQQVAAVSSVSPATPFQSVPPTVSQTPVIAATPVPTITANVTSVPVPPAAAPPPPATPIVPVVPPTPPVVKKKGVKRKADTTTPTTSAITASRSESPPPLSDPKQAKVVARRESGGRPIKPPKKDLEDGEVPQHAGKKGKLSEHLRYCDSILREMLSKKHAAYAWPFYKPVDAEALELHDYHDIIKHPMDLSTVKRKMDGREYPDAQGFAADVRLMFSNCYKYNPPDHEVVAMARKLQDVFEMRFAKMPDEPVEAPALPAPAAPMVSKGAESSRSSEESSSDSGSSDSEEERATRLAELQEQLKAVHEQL
In assay [4] the target is CREBBP bromodomain (His-CREBBP(1081-1197)) (Homo sapiens (Human), UniProt Q92793). Briefly: AlphaScreen in-vitro binding assay for CREBBP. To be noted: single determination or n ≧ 2 independent determinations, read-out: Biochemical IC50 CREBBP. A digest of the protocol:
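Reactions at 30 °C for 35 min, then Ni-chelate acceptor and streptavidin donor beads in HEPES pH 7.5, NaCl, Tween20, BSA, 60 min at room temperature. Eight-point compound series; IC50 by non-linear regression of percent inhibition.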

The test system of assay [5] is THP-1 cells. Briefly: Cell growth inhibition assay (CellTiter-Glo), THP-1.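 As to all read-outs here: viability read as cellular ATP luminescence after 4 days, 3-fold dilution series from 10 µM, DMSO vehicle-treated cells taken as 100%, cell-free medium wells as −100%.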 The settings on record: for GI50: Homo sapiens, THP-1, read-out: THP-1 GI50; for THP-1 TGI: THP-1 cells, total growth inhibition, CellTiter-Glo.
The test system of assay [6] is K-562 cells. Briefly: Cell growth inhibition assay (CellTiter-Glo), K-562.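 As to all read-outs here: cellular ATP measured by luminescence after 4 days of exposure, 3-fold dilution series from 10 µM, DMSO vehicle-treated cells define 100%, cell-free medium wells −100%.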 To be noted: for GI50: Homo sapiens, K562, read-out: K-562 GI50; for K-562 TGI: K-562 cells, total growth inhibition, CellTiter-Glo.
In assay [7] the test system is MV-4-11 cells. Briefly: Cell growth inhibition assay (CellTiter-Glo), MV-4-11.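 As to all read-outs here: cellular ATP luminescence after 4 days, 3-fold dilution series from 10 µM top dose, vehicle (0.1% DMSO) set to 100%, cell-free medium set to −100%, day 0 corrected.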 The settings on record: for GI50: Homo sapiens, MV4-11, read-out: MV-4-11 GI50; for MV-4-11 TGI: MV-4-11 cells, total growth inhibition, CellTiter-Glo.

A value given as a limit tells only on which side of the number the result lay.

CREBBP bromodomain (His-CREBBP(1081-1197)), sequence (Q92793 1081-1197): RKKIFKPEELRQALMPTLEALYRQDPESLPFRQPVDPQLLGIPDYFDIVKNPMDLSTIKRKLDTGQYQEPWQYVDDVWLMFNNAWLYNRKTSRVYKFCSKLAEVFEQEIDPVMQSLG
BRD2 (His-Brd2(60-472)), sequence (P25440 60-472): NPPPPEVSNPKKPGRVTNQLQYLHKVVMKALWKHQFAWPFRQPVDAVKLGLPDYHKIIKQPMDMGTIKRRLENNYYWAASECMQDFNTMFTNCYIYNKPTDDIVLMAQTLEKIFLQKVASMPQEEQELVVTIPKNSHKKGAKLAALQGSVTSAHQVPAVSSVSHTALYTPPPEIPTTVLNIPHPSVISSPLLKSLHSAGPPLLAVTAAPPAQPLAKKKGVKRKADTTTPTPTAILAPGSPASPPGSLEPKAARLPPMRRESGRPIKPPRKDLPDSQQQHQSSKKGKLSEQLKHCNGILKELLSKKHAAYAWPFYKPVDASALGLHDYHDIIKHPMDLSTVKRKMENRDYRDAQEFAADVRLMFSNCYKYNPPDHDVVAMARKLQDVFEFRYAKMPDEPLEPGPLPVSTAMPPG

As to `Cc1cc(N2C(=O)c3nc(C)n(C(C)C)c3[C@H]2c2ccc(Cl)cc2)cc2c1nnn2C` [Example 109, (R)-6-(4-chlorophenyl)-5-(3,7-dimethyl-3H-benzo[d][1,2,3]triazol-5-yl)-1-isopropyl-2-methyl-5,6-dihydropyrrolo[3,4-d]imidazol-4(1H)-one], the IC50 in assay [1] stood at 22 nM; in assay [2] it was 38 nM; in assay [3], 19 nM; in assay [4], 4350 nM. For the same molecule, the results for the GI50 in assay [5], in assay [6] and in assay [7] were 11.9 nM, 52 nM and 6.29 nM, respectively. The “THP-1 TGI” value in assay [5] came out at 35.8 nM. For the same molecule, the “K-562 TGI” value in assay [6] was greater than 10000 nM. Besides, the “MV-4-11 TGI” value in assay [7] is 15.35 nM.

With `Cc1cc(N2C(=O)c3nc(C)n(C(C)C)c3[C@H]2c2ccc(Cl)cc2)nn2c(C)nnc12` [Example 110, (R)-6-(4-chlorophenyl)-5-(3,8-dimethyl-[1,2,4]triazolo[4,3-b]pyridazin-6-yl)-1-isopropyl-2-methyl-5,6-dihydropyrrolo[3,4-d]imidazol-4(1H)-one], the concentration for half-maximal inhibition (IC50) in assay [1] was less than 11 nM; in assay [2], 12 nM; in assay [3], less than 11 nM; in assay [4], 35900 nM. Further, the GI50 in assay [5] is 6.94 nM; in assay [6], 30.6 nM; in assay [7], 4.48 nM. The “THP-1 TGI” value in assay [5] turned out to be 21.6 nM. The “K-562 TGI” value in assay [6] was greater than 10000 nM. Moreover, in assay [7], the “MV-4-11 TGI” value stood at 11 nM.

In the case of `COc1ncccc1-c1nc2c(n1C(C)C)[C@@H](c1ccc(Cl)cc1)N(c1cc(OC)c3nnn(C)c3c1)C2=O` [Example 111], the IC50 came to 14 nM in assay [1], 33 nM in assay [2], 20 nM in assay [3] and 8900 nM in assay [4]. For the same molecule, the GI50 was found to be 40.2 nM in assay [5], 90.1 nM in assay [6] and 18.6 nM in assay [7]. In assay [5], the “THP-1 TGI” value amounted to 92.1 nM. Besides, in assay [6], the “K-562 TGI” value was greater than 10000 nM. Moreover, in assay [7], the “MV-4-11 TGI” value stood at 44.65 nM.

On to `COc1ccc(-c2nc3c(n2C(C)C)C(c2ccc(Cl)cc2)N(c2cc(OC)c4nnn(C)c4c2)C3=O)cn1` (stereo not drawn) [Example 113, 6-(4-chlorophenyl)-1-isopropyl-5-(4-methoxy-1-methyl-1H-benzo[d][1,2,3]triazol-6-yl)-2-(6-methoxypyridin-3-yl)-5,6-dihydropyrrolo[3,4-d]imidazol-4(1H)-one], for which the IC50 is 200 nM in assay [1], 100 nM in assay [2], 102 nM in assay [3] and greater than 37000 nM in assay [4]. The concentration for 50% growth inhibition (GI50) in assay [5] came out at 171 nM; in assay [6] it was 358 nM; in assay [7], 125 nM. In assay [5], the “THP-1 TGI” value was 359.5 nM. Besides, the “K-562 TGI” value in assay [6] is greater than 10000 nM. Moreover, in assay [7], the “MV-4-11 TGI” value was found to be 186 nM.

On to `COc1ccc(-c2nc3c(n2C(C)C)[C@@H](c2ccc(Cl)cc2)N(c2cc(OC)c4nnn(C)c4c2)C3=O)cn1` [Example 114, (R)-6-(4-chlorophenyl)-1-isopropyl-5-(4-methoxy-1-methyl-1H-benzo[d][1,2,3]triazol-6-yl)-2-(6-methoxypyridin-3-yl)-5,6-dihydropyrrolo[3,4-d]imidazol-4(1H)-one], for which the IC50 in assay [1] amounted to 38 nM; in assay [2], 87 nM; in assay [3] it was 100 nM; in assay [4], 12900 nM. The GI50 came to 118 nM in assay [5], 268 nM in assay [6] and 77.7 nM in assay [7]. Further, in assay [5], the “THP-1 TGI” value was 300.5 nM. Moreover, the “K-562 TGI” value in assay [6] is greater than 10000 nM. Moreover, in assay [7], the “MV-4-11 TGI” value was 158.5 nM.

For the molecule `COc1ncc(-c2nc3c([nH]2)C(c2ccc(Cl)cc2)N(c2cc(C)c4nnc(C)n4c2)C3=O)c(OC)n1` (stereo not drawn) [Example 124, 6-(4-chlorophenyl)-2-(2,4-dimethoxypyrimidin-5-yl)-5-(3,8-dimethyl-[1,2,4]triazolo[4,3-a]pyridin-6-yl)-5,6-dihydropyrrolo[3,4-d]imidazol-4(1H)-one], the IC50 is 38 nM in assay [1], 94 nM in assay [2], 39 nM in assay [3] and 3800 nM in assay [4]. For the same molecule, the values for the concentration for 50% growth inhibition (GI50) in assay [5], in assay [6] and in assay [7] were 66.3 nM, 257 nM and 56.2 nM, respectively. Also, the “THP-1 TGI” value in assay [5] is 134.5 nM. Also, the “K-562 TGI” value in assay [6] is greater than 10000 nM. Further, in assay [7], the “MV-4-11 TGI” value came out at 96.75 nM.

With `COc1ccc(-c2nc3c([nH]2)[C@@H](c2ccc(Cl)cc2)N(c2cc(OC)c4nnc(C)n4c2)C3=O)cn1` [Example 126, (R)-6-(4-chlorophenyl)-5-(8-methoxy-3-methyl-[1,2,4]triazolo[4,3-a]pyridin-6-yl)-2-(6-methoxypyridin-3-yl)-5,6-dihydropyrrolo[3,4-d]imidazol-4(1H)-one], the IC50 in assay [1] amounted to 104 nM; in assay [2], 385 nM; in assay [3] it was 283 nM; in assay [4] it was 25900 nM. Further, the GI50 is 947 nM in assay [5], 2270 nM in assay [6] and 408 nM in assay [7]. Moreover, the “THP-1 TGI” value in assay [5] was 1700 nM. Besides, the “K-562 TGI” value in assay [6] is greater than 10000 nM. Moreover, in assay [7], the “MV-4-11 TGI” value came to 592 nM.

For `COc1ncc(-c2nc3c([nH]2)[C@@H](c2ccc(Cl)cc2)N(c2cc(OC)c4nnc(C)n4c2)C3=O)c(OC)n1` [Example 128, (R)-6-(4-chlorophenyl)-2-(2,4-dimethoxypyrimidin-5-yl)-5-(8-methoxy-3-methyl-[1,2,4]triazolo[4,3-a]pyridin-6-yl)-5,6-dihydropyrrolo[3,4-d]imidazol-4(1H)-one], the half-inhibitory concentration (IC50) in assay [1] amounted to 84.5 nM; in assay [2], 220 nM; in assay [3], 136 nM; in assay [4], 16400 nM. Besides, the GI50 in assay [5] was 371 nM; in assay [6], 1230 nM; in assay [7], 188 nM. For the same molecule, in assay [5], the “THP-1 TGI” value is 947 nM. Besides, in assay [6], the “K-562 TGI” value is greater than 10000 nM. Moreover, in assay [7], the “MV-4-11 TGI” value came out at 350.5 nM.

For `COc1ccc(-c2nc3c([nH]2)[C@@H](c2ccc(Cl)cc2)N(c2cc(C)c4nnc(C)n4c2)C3=O)cn1` [Example 129, (R)-6-(4-chlorophenyl)-5-(3,8-dimethyl-[1,2,4]triazolo[4,3-a]pyridin-6-yl)-2-(6-methoxypyridin-3-yl)-5,6-dihydropyrrolo[3,4-d]imidazol-4(1H)-one], the half-maximal inhibitory concentration (IC50) was 1840 nM in assay [1], 4700 nM in assay [2], 2320 nM in assay [3] and greater than 37000 nM in assay [4]. Besides, the GI50 in assay [5] is 662 nM; in assay [6] it was 1070 nM; in assay [7] it was 209 nM. The “THP-1 TGI” value in assay [5] came out at 1080 nM. The “K-562 TGI” value in assay [6] is greater than 10000 nM. In addition, in assay [7], the “MV-4-11 TGI” value amounted to 343 nM.

For `Cc1cc(N2C(=O)c3nc(N4CCOCC4)n(C)c3C2c2ccc(Cl)cc2)cn(C)c1=O` (stereo not drawn) [Example 130, 6-(4-chlorophenyl)-5-(1,5-dimethyl-6-oxo-1,6-dihydropyridin-3-yl)-1-methyl-2-morpholino-5,6-dihydropyrrolo[3,4-d]imidazol-4(1H)-one], the half-inhibitory concentration (IC50) in assay [1] was determined as 180 nM; in assay [2] it was 230 nM; in assay [3] it was 160 nM; in assay [4], 2400 nM. In addition, the GI50 in assay [5] worked out at 526 nM; in assay [6], 1940 nM; in assay [7], 167 nM. In assay [5], the “THP-1 TGI” value is 1210 nM. In addition, the “K-562 TGI” value in assay [6] is greater than 10000 nM. For the same molecule, the “MV-4-11 TGI” value in assay [7] worked out at 390.5 nM.

As for `Cc1cc(N2C(=O)c3nc(C)n(C(C)C)c3C2c2ccc(Cl)cc2)cn2c(C(F)F)nnc12` (stereo not drawn) [Example 131, 6-(4-chlorophenyl)-5-(3-(difluoromethyl)-8-methyl-[1,2,4]triazolo[4,3-a]pyridin-6-yl)-1-isopropyl-2-methyl-5,6-dihydropyrrolo[3,4-d]imidazol-4(1H)-one], the IC50 in assay [1] is 28 nM; in assay [2], 49 nM; in assay [3], 31 nM; in assay [4] it was greater than 37000 nM. Besides, the GI50 was 23.8 nM in assay [5], 87.5 nM in assay [6] and 16.4 nM in assay [7]. The “THP-1 TGI” value in assay [5] was 55 nM. For the same molecule, the “K-562 TGI” value in assay [6] is greater than 10000 nM. The “MV-4-11 TGI” value in assay [7] was 29.5 nM.

On to `COc1ncccc1-c1nc2c(n1C(C)C)C(c1ccc(Cl)cc1)N(c1cc(C)c3nnc(C(F)F)n3c1)C2=O` (stereo not drawn) [Example 132, 6-(4-chlorophenyl)-5-(3-(difluoromethyl)-8-methyl-[1,2,4]triazolo[4,3-a]pyridin-6-yl)-1-isopropyl-2-(2-methoxypyridin-3-yl)-5,6-dihydropyrrolo[3,4-d]imidazol-4(1H)-one], for which the IC50 in assay [1] is less than 11 nM; in assay [2], 19 nM; in assay [3], 12 nM; in assay [4], 27500 nM. Also, the results for the GI50 in assay [5], in assay [6] and in assay [7] were 12.6 nM, 51.8 nM and 9.44 nM, respectively. Besides, in assay [5], the “THP-1 TGI” value came out at 33.15 nM. Moreover, the “K-562 TGI” value in assay [6] was greater than 10000 nM. Further, the “MV-4-11 TGI” value in assay [7] was determined as 18.9 nM.

The record behind these values is patent US9890166B2, “Imidazopyrrolidine derivatives and their use in the treatment of disease” (NOVARTIS AG, priority 2013, dated 2018).
